Among the data in patent publication US10357484B2, “Heterocyclic compound” (Takeda Pharmaceutical Company Limited, priority 2015, dated 2019) are inhibition values, retold here.

Holding throughout (format): biochemical
One test addresses T1, HDAC9 enzyme (Homo sapiens, UniProt Q9UKV0).
T1 construct: transducing full length HDAC9 gene into Sf-9 insect cells; made in house; host or cells: Sf-9 insect cells
Nature of the test: HDAC9 enzyme inhibitory assay (HDAC-Glo class IIa). As to conditions: 1 μM test compound; wells without enzyme = 100% inhibition; read-out: HDAC9 inhibitory rate (%) (1 μM). As for the experimental part: HDAC9 Enzyme Inhibitory Assay
Enzyme was prepared by transducing full length HDAC9 gene into Sf-9 insect cells and purifying by Ni-NTA affinity column, and HDAC9 enzyme inhibitory activity was evaluated. Enzymes were used after preserved at −70° C. HDAC9 enzyme inhibitory activity of the test compound was measured using HDAC-Glo class IIa (Promega) according to the following experimental method. The test compound diluted with assay buffer (24 mM Tris-HCl (pH 7.5), 1 mM MgCl2, 0.35 mM KCl, 135 mM NaCl, 0.6 mM Glutathione, 0.01% Tween-20) was added to a 384-well plate by each 2 μL. Then, HDAC9 enzyme solution diluted with assay buffer was added thereto by each 2 μL, and the plate was incubated at room temperature for 60 min. After incubated, HDAC substrate-Developer solution prepared according to Promega protocol was added to the 384-well plate by each 4 μL, and the enzyme reaction was started. After reacting at room temperature for 20 min, luminescence level was measured using plate reader Envision (PerkinElmer). The inhibitory activity of each compound was calculated as a relative activity value when luminescence level in wells without enzyme is considered as 100% inhibition.

For a further test, the target named is T2, HDAC1 enzyme (Homo sapiens, UniProt Q13547).
T2 construct: transducing full length HDAC1 and HDAC6 genes into Sf-9 insect cells; GST; purchased SignalChem; host or cells: Sf-9 insect cells
Nature of the test: HDAC1 enzyme inhibitory assay (HDAC-Glo I/II Assay kit). The note with it: 1 μM test compound; wells without enzyme = 100% inhibition; read-out: HDAC1 inhibitory rate (%) (1 μM). As for the experimental part:
(§1) HDAC1/6 Enzyme Inhibitory Assay
(§2) HDAC1 enzyme and HDAC6 enzyme each prepared by transducing full length HDAC1 and HDAC6 genes into Sf-9 insect cells and purifying by GST affinity column were purchased from SignalChem. Using these enzymes, HDAC1 and/or HDAC6 enzyme inhibitory activities of the compound of the present invention were evaluated. Enzymes were used after preserved at −70° C. HDAC1 or HDAC6 enzyme inhibitory activity of the compound of the present invention was measured using HDAC-Glo™ I/II Assay kit (Promega) according to the following experimental method. The test compound diluted with assay buffer (24 mM Tris-HCl (pH 7.5), 1 mM MgCl2, 0.35 mM KCl, 135 mM NaCl, 0.6 mM Glutathione, 0.01% Tween-20) was added to a 384-well plate by each 2 μL. Then, HDAC1 or HDAC6 enzyme solution diluted with assay buffer was added thereto by each 4 μL, and the plate was incubated at room temperature for 60 min. After incubated, HDAC substrate-Developer solution prepared according to Promega protocol attached to the assay kit was added to the 384-well plate by each 2 μL, and the enzyme reaction was started. After reacting at room temperature for 20 min, luminescence level was measured using plate reader Envision (PerkinElmer). The inhibitory activity of each compound was calculated as a relative activity value when luminescence level in wells without enzyme is considered as 100% inhibition.

The target of another test is T3, HDAC6 enzyme (Homo sapiens, UniProt Q9UBN7).
T3 construct: transducing full length HDAC1 and HDAC6 genes into Sf-9 insect cells; GST; purchased SignalChem; host or cells: Sf-9 insect cells
T3 sequence (Q9UBN7 1-1215): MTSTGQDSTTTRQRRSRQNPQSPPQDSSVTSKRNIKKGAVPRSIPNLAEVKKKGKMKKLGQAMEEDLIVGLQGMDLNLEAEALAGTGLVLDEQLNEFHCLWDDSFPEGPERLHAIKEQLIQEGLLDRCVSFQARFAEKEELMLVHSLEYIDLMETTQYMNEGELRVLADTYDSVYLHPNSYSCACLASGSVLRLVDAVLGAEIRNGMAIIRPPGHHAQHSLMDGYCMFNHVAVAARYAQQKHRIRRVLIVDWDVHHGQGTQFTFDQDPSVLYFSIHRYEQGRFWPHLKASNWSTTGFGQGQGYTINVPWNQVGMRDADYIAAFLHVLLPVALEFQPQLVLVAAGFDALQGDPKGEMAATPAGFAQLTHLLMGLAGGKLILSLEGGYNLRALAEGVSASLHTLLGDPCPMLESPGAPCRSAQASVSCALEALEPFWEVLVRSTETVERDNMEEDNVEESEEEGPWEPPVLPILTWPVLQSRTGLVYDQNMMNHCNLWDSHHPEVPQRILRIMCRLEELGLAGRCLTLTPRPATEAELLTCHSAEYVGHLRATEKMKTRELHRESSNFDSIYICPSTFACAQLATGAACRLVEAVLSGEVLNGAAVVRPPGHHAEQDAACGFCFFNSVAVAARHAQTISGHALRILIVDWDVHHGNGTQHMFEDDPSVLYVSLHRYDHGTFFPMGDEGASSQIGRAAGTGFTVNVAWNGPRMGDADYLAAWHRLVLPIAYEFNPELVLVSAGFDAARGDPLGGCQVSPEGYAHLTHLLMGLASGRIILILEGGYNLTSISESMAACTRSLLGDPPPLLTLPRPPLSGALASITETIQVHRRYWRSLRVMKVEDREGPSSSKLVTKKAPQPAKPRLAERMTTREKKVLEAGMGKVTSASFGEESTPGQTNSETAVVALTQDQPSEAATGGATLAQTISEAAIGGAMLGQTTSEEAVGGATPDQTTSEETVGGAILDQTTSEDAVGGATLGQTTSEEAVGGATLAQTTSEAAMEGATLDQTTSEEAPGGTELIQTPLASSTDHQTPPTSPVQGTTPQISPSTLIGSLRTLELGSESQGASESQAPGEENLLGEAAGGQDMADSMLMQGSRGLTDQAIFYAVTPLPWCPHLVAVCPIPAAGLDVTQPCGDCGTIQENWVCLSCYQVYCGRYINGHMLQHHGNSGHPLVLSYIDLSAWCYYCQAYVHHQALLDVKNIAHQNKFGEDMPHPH
Briefly: HDAC6 enzyme inhibitory assay (HDAC-Glo I/II Assay kit). As to conditions: 1 μM test compound; wells without enzyme = 100% inhibition; read-out: HDAC6 inhibitory rate (%) (1 μM). As for the experimental part:
as §1, §2

T2 sequence (Q13547 whole entry): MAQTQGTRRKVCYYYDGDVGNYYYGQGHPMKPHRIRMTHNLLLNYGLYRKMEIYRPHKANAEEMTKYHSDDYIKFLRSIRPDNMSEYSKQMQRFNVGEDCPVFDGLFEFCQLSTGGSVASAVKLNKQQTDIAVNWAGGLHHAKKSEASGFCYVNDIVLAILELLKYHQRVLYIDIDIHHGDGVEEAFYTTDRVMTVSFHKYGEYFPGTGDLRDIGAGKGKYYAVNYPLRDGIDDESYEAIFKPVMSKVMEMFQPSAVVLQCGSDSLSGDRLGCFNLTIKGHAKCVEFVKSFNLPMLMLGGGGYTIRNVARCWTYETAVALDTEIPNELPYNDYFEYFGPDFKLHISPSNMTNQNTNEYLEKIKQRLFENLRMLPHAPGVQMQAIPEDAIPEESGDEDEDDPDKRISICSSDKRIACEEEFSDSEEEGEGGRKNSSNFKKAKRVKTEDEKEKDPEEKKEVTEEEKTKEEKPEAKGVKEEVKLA
T1 sequence (Q9UKV0 whole entry, species assumed): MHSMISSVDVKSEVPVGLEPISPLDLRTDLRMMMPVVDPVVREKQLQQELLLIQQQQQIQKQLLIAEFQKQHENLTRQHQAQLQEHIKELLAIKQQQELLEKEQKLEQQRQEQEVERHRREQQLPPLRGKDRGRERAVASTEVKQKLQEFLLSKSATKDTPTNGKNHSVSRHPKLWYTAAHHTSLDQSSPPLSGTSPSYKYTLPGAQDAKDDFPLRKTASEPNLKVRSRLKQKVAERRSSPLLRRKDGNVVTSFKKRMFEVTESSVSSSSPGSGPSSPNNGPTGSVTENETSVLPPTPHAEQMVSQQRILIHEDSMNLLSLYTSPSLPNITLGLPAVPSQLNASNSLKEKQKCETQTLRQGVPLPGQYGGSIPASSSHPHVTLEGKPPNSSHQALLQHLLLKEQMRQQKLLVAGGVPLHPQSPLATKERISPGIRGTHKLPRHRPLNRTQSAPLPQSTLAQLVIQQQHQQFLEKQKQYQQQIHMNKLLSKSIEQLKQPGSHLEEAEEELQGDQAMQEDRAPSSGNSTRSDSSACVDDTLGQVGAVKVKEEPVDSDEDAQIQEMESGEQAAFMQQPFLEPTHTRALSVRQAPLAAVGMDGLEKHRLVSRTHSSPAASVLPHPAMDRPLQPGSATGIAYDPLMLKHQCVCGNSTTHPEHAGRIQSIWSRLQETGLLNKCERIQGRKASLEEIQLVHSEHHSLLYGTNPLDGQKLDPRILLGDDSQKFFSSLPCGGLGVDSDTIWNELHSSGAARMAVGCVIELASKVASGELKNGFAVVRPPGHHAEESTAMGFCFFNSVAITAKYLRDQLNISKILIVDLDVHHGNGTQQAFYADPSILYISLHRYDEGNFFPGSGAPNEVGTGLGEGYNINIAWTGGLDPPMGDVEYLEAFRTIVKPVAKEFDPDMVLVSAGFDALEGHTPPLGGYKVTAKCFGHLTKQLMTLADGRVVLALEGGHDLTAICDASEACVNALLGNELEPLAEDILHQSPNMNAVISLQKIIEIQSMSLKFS

As to `COc1ncccc1CN1Cc2ccc(-c3noc(C(F)(F)F)n3)cc2C1=O` [Example 33, 2-((2-methoxypyridin-3-yl)methyl)-6-(5-(trifluoromethyl)-1,2,4-oxadiazol-3-yl)isoindolin-1-one], the inhibition at 1 µM at HDAC9 enzyme is 77%; on HDAC1 enzyme it was 19%; at HDAC6 enzyme it was 98%.
Taken in the same sequence, the figures for `COc1ccc([C@H](C)N2Cc3ccc(-c4noc(C(F)(F)F)n4)cc3C2=O)cc1` [Example 18, 2-((1S)-1-(4-methoxyphenyl)ethyl)-6-(5-(trifluoromethyl)-1,2,4-oxadiazol-3-yl)isoindolin-1-one] were 89%, 27% and 91%.
Taken in the same sequence, the figures for `C[C@@H](c1ccc(F)cc1F)N1Cc2ccc(-c3noc(C(F)(F)F)n3)cc2C1=O` [Example 17, 2-((1S)-1-(2,4-difluorophenyl)ethyl)-6-(5-(trifluoromethyl)-1,2,4-oxadiazol-3-yl)isoindolin-1-one] were 74%, 12% and 95%.
In the case of `O=C1c2cc(-c3noc(C(F)(F)F)n3)ccc2CN1Cc1cccc(Oc2ccccc2)c1` [Example 10, 2-(3-phenoxybenzyl)-6-(5-(trifluoromethyl)-1,2,4-oxadiazol-3-yl)isoindolin-1-one], the inhibition at 1 µM at HDAC9 enzyme was found to be 52%; on HDAC1 enzyme, 15%; on HDAC6 enzyme it was 28%.
Taken in the same sequence, the figures for `CC(c1ccccn1)N1Cc2ccc(-c3noc(C(F)(F)F)n3)cc2C1=O` (stereo not drawn) [Example 34] were 79%, 16% and 97%.
Turning to `C[C@@H](c1ccc(F)cc1)N1Cc2ccc(-c3noc(C(F)(F)F)n3)cc2C1=O` [Example 13, 2-((1S)-1-(4-fluorophenyl)ethyl)-6-(5-(trifluoromethyl)-1,2,4-oxadiazol-3-yl)isoindolin-1-one], the inhibition at 1 µM at HDAC9 enzyme stood at 79%; at HDAC1 enzyme it was 14%; on HDAC6 enzyme it was 90%.
Turning to `N#Cc1ccc(CN2Cc3ccc(-c4noc(C(F)(F)F)n4)cc3C2=O)cc1` [Example 29, 4-((1-oxo-6-(5-(trifluoromethyl)-1,2,4-oxadiazol-3-yl)-1,3-dihydro-2H-isoindol-2-yl)methyl)benzonitrile], the inhibition at 1 µM at HDAC9 enzyme was 74%; at HDAC1 enzyme, 23%; at HDAC6 enzyme it was 94%.
